Experimental data reported in patent publication US9814236B2, “Agricultural or horticultural chemical, method of controlling plant diseases, and product for controlling plant diseases” (Kureha Corporation, priority 2013, dated 2017).
Read-outs that look alike come from different tables or passages of the source.

Columns and labels:
Assay type in all cases: cell-based
[1] = system: wheat leaf blight (Septoria tritici); test: In vitro antimicrobial activity test on PDA agar plates, 25° C., 14 days (Test Examples 4 to 7)
Experimental: (§1) Additionally, in the above formula, R represents a fungal expansion suppression rate (%), dc represents the diameter of a colony on an untreated plate, and dt represents the diameter of a colony on an chemical-treated plate.
(§2) Inhibition rate during mixed use (theoretical value)=α+((100−α)×β)/100, note that, in the formula above, α and β respectively represent the inhibition rates of the compounds during single use of the compounds.
Testing and determination were performed in the same manner as in Test Example 4 except for using the thiophanate-methyl in place of the boscalid.
Test and determination were performed in the same manner as in Test Example 4 except for using the chlorothalonil in place of the boscalid.

[2] = system: gray mold disease (Botrytis cinerea); test: In vitro antimicrobial activity test on PDA agar plates, 20° C., two days (Test Examples 3, 8); settings: Test Example 8
Experimental: as §1, §2
Test and determination were performed in the same manner as in Test Example 3 except for using the penthiopyrad in place of the isopyrazam.

[3] = system: wheat damping off (Gaeumannomyces graminis); test: In vitro antimicrobial activity test on PDA agar plates, 20° C., three days (Test Example 2)
Excerpt: as §1, §2
In the present test example, the antimicrobial properties of a mixed formulation of compound (1) and bixafen on wheat damping off (Gaeumannomyces graminis) were tested.
Meanwhile, wheat damping off was punched out from the periphery of a colony of wheat damping off using a cork borer having a diameter of 4 mm, and inoculated onto the PDA agar plates in which the chemical(s) was(were) mixed.

[4] = system: gray mold disease (Botrytis cinerea); test: In vitro antimicrobial activity test on PDA agar plates, 20° C., two days (Test Examples 3, 8); settings: Test Example 3
[5] = system: wheat leaf blight (Septoria tritici); test: In vitro antimicrobial activity test on PDA agar plates, 20° C., three days (Test Example 1)
Experimental: In the present test example, the antimicrobial properties of a mixed formulation of compound (1) and bixafen on wheat leaf blight (Septoria tritici) were tested.
as §1, §2

SMILES: N#Cc1c(Cl)c(Cl)c(Cl)c(C#N)c1Cl [Chlorothalonil, chlorothalonil]
- inhibition at 0.01 ppm ([1]; Zymoseptoria tritici, 4TO7, Test Example 6, Chlorothalonil 0.010 ppm alone, read-out: Fungal growth inhibition rate (%) Measured value): 0%
- inhibition at 0.039 ppm ([1]; Zymoseptoria tritici, 4TO7, Test Example 6, Chlorothalonil 0.039 ppm alone, read-out: Fungal growth inhibition rate (%) Measured value): 0%
- inhibition at 0.156 ppm ([1]; Zymoseptoria tritici, 4TO7, Test Example 6, Chlorothalonil 0.156 ppm alone, read-out: Fungal growth inhibition rate (%) Measured value): 0%
- inhibition at 0.625 ppm ([1]; Zymoseptoria tritici, 4TO7, Test Example 6, Chlorothalonil 0.625 ppm alone, read-out: Fungal growth inhibition rate (%) Measured value): 3%
- inhibition at 2.5 ppm ([1]; Zymoseptoria tritici, 4TO7, Test Example 6, Chlorothalonil 2.5 ppm alone, read-out: Fungal growth inhibition rate (%) Measured value): 30%

SMILES: Cn1cc(C(=O)Nc2ccccc2-c2cc(F)c(F)c(F)c2)c(C(F)F)n1 [Fluxapyroxad, fluxapyroxad]
- Fungal growth inhibition rate (%) Measured value ([1]; Test Example 7, Fluxapyroxad 0.04 ppm alone): 11%
- Fungal growth inhibition rate (%) Measured value ([1]; Test Example 7, Fluxapyroxad 0.16 ppm alone): 34%
- Fungal growth inhibition rate (%) Measured value ([1]; Test Example 7, Fluxapyroxad 0.63 ppm alone): 74%

SMILES: COC(=O)NC(=S)Nc1ccccc1NC(=S)NC(=O)OC [Thiophanate-methyl, thiophanate-methyl]
- inhibition at 0.01 ppm ([1]; Zymoseptoria tritici, 4TO7, Test Example 5, Thiophanate-methyl 0.010 ppm alone, read-out: Fungal growth inhibition rate (%) Measured value): 0%
- inhibition at 0.039 ppm ([1]; Zymoseptoria tritici, 4TO7, Test Example 5, Thiophanate-methyl 0.039 ppm alone, read-out: Fungal growth inhibition rate (%) Measured value): 0%
- inhibition at 0.156 ppm ([1]; Zymoseptoria tritici, 4TO7, Test Example 5, Thiophanate-methyl 0.156 ppm alone, read-out: Fungal growth inhibition rate (%) Measured value): 0%
- inhibition at 0.625 ppm ([1]; Zymoseptoria tritici, 4TO7, Test Example 5, Thiophanate-methyl 0.625 ppm alone, read-out: Fungal growth inhibition rate (%) Measured value): 76%
- inhibition at 2.5 ppm ([1]; Zymoseptoria tritici, 4TO7, Test Example 5, Thiophanate-methyl 2.5 ppm alone, read-out: Fungal growth inhibition rate (%) Measured value): 100%

SMILES: CC(C)CC(C)c1sccc1NC(=O)c1cn(C)nc1C(F)(F)F (stereo not drawn) [Penthiopyrad, penthiopyrad]
- inhibition at 0.63 ppm ([2]; Botrytis cinerea, Penthiopyrad 0.63 ppm alone, read-out: Fungal growth inhibition rate (%) Measured value): 31%
- inhibition at 2.5 ppm ([2]; Botrytis cinerea, Penthiopyrad 2.50 ppm alone, read-out: Fungal growth inhibition rate (%) Measured value): 61%
- inhibition at 10 ppm ([2]; Botrytis cinerea, Penthiopyrad 10.00 ppm alone, read-out: Fungal growth inhibition rate (%) Measured value): 93%

SMILES: COC(=O)C1(C)CCC(Cc2ccc(Cl)cc2)C1(O)Cn1cncn1 (stereo not drawn) [Compound (1), 3-(4-chlorobenzyl)-2-hydroxy-1-methyl-2-(1H-1,2,4-triazol-1-ylmethyl) cyclopentane carboxylic acid methyl]
- Fungal growth inhibition rate (%) Measured value ([3]; Compound (1) 0.005 ppm alone): 0%
- Fungal growth inhibition rate (%) Measured value ([4]; Compound (1) 0.078 ppm alone): 4%
- Fungal growth inhibition rate (%) Measured value ([2]; Compound (1) 0.078 ppm alone): 13%
- Fungal growth inhibition rate (%) Measured value ([5]; Compound (1) 0.005 ppm alone): 0%
- Fungal growth inhibition rate (%) Measured value ([1]; Test Example 4, Compound (1) 0.02 ppm alone): 0%
- Fungal growth inhibition rate (%) Measured value ([1]; Test Example 5, Compound (1) 0.005 ppm alone): 23%
- Fungal growth inhibition rate (%) Measured value ([1]; Test Example 6, Compound (1) 0.005 ppm alone): 81%
- Fungal growth inhibition rate (%) Measured value ([1]; Test Example 7, Compound (1) 0.02 ppm alone): 7%

SMILES: CC(C)C1C2CCC1c1c(NC(=O)c3cn(C)nc3C(F)F)cccc12 (stereo not drawn) [Isopyrazam, isopyrazam]
- Fungal growth inhibition rate (%) Measured value ([4]; Isopyrazam 0.0393 ppm alone): 1%
- Fungal growth inhibition rate (%) Measured value ([4]; Isopyrazam 0.1575 ppm alone): 9%
- Fungal growth inhibition rate (%) Measured value ([4]; Isopyrazam 0.63 ppm alone): 23%
- Fungal growth inhibition rate (%) Measured value ([4]; Isopyrazam 2.5 ppm alone): 35%
- Fungal growth inhibition rate (%) Measured value ([4]; Isopyrazam 10 ppm alone): 69%

SMILES: O=C(Nc1ccccc1-c1ccc(Cl)cc1)c1cccnc1Cl [Boscalid, boscalid]
- inhibition at 0.0393 ppm ([1]; Zymoseptoria tritici, 4TO7, Test Example 4, Boscalid 0.0393 ppm alone, read-out: Fungal growth inhibition rate (%) Measured value): 0%
- inhibition at 0.1575 ppm ([1]; Zymoseptoria tritici, 4TO7, Test Example 4, Boscalid 0.1575 ppm alone, read-out: Fungal growth inhibition rate (%) Measured value): 0%
- inhibition at 0.63 ppm ([1]; Zymoseptoria tritici, 4TO7, Test Example 4, Boscalid 0.63 ppm alone, read-out: Fungal growth inhibition rate (%) Measured value): 31%
- inhibition at 2.5 ppm ([1]; Zymoseptoria tritici, 4TO7, Test Example 4, Boscalid 2.5 ppm alone, read-out: Fungal growth inhibition rate (%) Measured value): 49%
- inhibition at 10 ppm ([1]; Zymoseptoria tritici, 4TO7, Test Example 4, Boscalid 10 ppm alone, read-out: Fungal growth inhibition rate (%) Measured value): 100%

SMILES: Cn1cc(C(=O)Nc2ccc(F)cc2-c2ccc(Cl)c(Cl)c2)c(C(F)F)n1 [Bixafen, bixafen]
- Fungal growth inhibition rate (%) Measured value ([3]; Bixafen 0.0393 ppm alone): 0%
- Fungal growth inhibition rate (%) Measured value ([3]; Bixafen 0.1575 ppm alone): 3%
- Fungal growth inhibition rate (%) Measured value ([3]; Bixafen 0.63 ppm alone): 4%
- Fungal growth inhibition rate (%) Measured value ([3]; Bixafen 2.5 ppm alone): 29%
- Fungal growth inhibition rate (%) Measured value ([5]; Bixafen 0.0393 ppm alone): 0%
- Fungal growth inhibition rate (%) Measured value ([5]; Bixafen 0.1575 ppm alone): 6%
- Fungal growth inhibition rate (%) Measured value ([5]; Bixafen 0.63 ppm alone): 31%
- Fungal growth inhibition rate (%) Measured value ([5]; Bixafen 2.5 ppm alone): 54%
